Measured values: patent US4463173A, “Cephalosporin derivatives” (ICI Pharma, priority 1979, dated 1984)
In brackets after ≈: the same amount, converted by molar mass.

How the values were obtained:
Strep. pyogenes = test: MIC by agar-dilution technique, Strep. pyogenes A1; assay type: cell-based; conditions: Streptococcus pyogenes, No. Code A1, inoculum ~10^5 CFU
From the text: (§1) As noted above the cephalosporin derivatives of the invention have antibacterial properties. Thus they are useful antibacterial agents, many of them having a broad spectrum of activity in vitro, against standard laboratory microorganisms, both Gram-negative and Gram-positive, which are used to screen for activity against pathogenic bacteria. The antibacterial spectrum and potency of a particular compound may be determined in a standard test system. […] The antibacterial activity is described in terms of the minimum inhibitory concentration (MIC) determined by agar-dilution technique with an inoculum size of ~10^5 CFU.

Staph. aureus = test: MIC by agar-dilution technique, Staph. aureus A6; assay type: cell-based; conditions: Staphylococcus aureus, No. Code A6, inoculum ~10^5 CFU
From the text: as §1

E. coli = test: MIC by agar-dilution technique, E. coli A8; assay type: cell-based; conditions: Escherichia coli, No. Code A8, inoculum ~10^5 CFU
From the text: as §1

K. aerogenes = test: MIC by agar-dilution technique, K. aerogenes A10; assay type: cell-based; conditions: Klebsiella aerogenes, No. Code A10, inoculum ~10^5 CFU
From the text: as §1

Ent. cloacae = test: MIC by agar-dilution technique, Ent. cloacae A13; assay type: cell-based; conditions: Enterobacter cloacae, No. Code A13, inoculum ~10^5 CFU
From the text: as §1

Serratia marescens = test: MIC by agar-dilution technique, Serratia marescens A16; assay type: cell-based; conditions: No. Code A16, inoculum ~10^5 CFU
From the text: as §1

Proteus mirabilis = test: MIC by agar-dilution technique, Proteus mirabilis A18; assay type: cell-based; conditions: No. Code A18, inoculum ~10^5 CFU
From the text: as §1

Ps. aeruginosa = test: MIC by agar-dilution technique, Ps. aeruginosa A21; assay type: cell-based; conditions: Pseudomonas aeruginosa, No. Code A21, inoculum ~10^5 CFU
From the text: as §1

bacterial infection = test: mouse protection test (PD50); assay type: in vivo; conditions: subcutaneous
[1] = overt toxic symptoms or side effects in mice; assay type: in vivo; conditions: single dose of 2 g./kg.
Procedure: Similarly the compound 7-(imidazol-2-yl)amino-3-(2-methyl-1,3,4-thiadiazol-5-yl)thiomethylceph-3- em-4-carboxylic acid was administered both orally and subcutaneously to mice at a single dose of 2 g./kg.

Which MIC (Strep. pyogenes) does the source give for `CC(=O)OCC1=C(C(=O)O)N2C(=O)[C@@H](Nc3nc4ccccc4[nH]3)[C@H]2SC1` here?
Its MIC is 2 µg/mL (≈ 5.15 µM).

What about the MIC (Staph. aureus) of the same compound?
Its MIC is 2 µg/mL (≈ 5.15 µM).

What about the MIC (E. coli) of the same compound?
Its MIC is 2 µg/mL (≈ 5.15 µM).

What about the MIC (K. aerogenes) of the same compound?
Its MIC is 4 µg/mL (≈ 10.3 µM).

What about the MIC (Ent. cloacae) of the same compound?
The MIC was greater than 64 µg/mL.

And the MIC (Serratia marescens)?
Its MIC is 64 µg/mL (≈ 165 µM).

And the MIC (Proteus mirabilis)?
The MIC was 4 µg/mL (≈ 10.3 µM).

And the MIC (Ps. aeruginosa)?
Its MIC is greater than 64 µg/mL.

Which results are given for `CC1=C(C(=O)O)N2C(=O)[C@@H](NC3=NCCN3)[C@H]2SC1`?
MIC (Strep. pyogenes): 256 µg/mL (≈ 907 µM); MIC (Staph. aureus): > 256 µg/mL; MIC (E. coli): 8 µg/mL (≈ 28.3 µM); MIC (K. aerogenes): 8 µg/mL (≈ 28.3 µM); MIC (Ent. cloacae): 8 µg/mL (≈ 28.3 µM); MIC (Serratia marescens): 32 µg/mL (≈ 113 µM); MIC (Proteus mirabilis): 256 µg/mL (≈ 907 µM); MIC (Ps. aeruginosa): > 256 µg/mL

With `CC(=O)OCC1=C(C(=O)O)N2C(=O)[C@@H](Nc3nc4c(O)cccc4[nH]3)[C@H]2SC1` [3-acetoxymethyl-7-(4-hydroxybenzimidazol-2-yl)aminoceph-3-em-4-carboxylic acid] as the compound, how does the “dose relative to minimum effective dose which protected 50% of the mice against bacterial infection (PD50)” value (bacterial infection; dose 200 mg./kg.) read?
Its value is “at least ten times”.

With `CC(=O)OCC1=C(C(=O)O)N2C(=O)[C@@H](Nc3nc(-c4ccc(N(C)C)cc4)c[nH]3)[C@H]2SC1` [3-acetoxymethyl-7-[4-(4-dimethylamino)phenylimidazol-2-yl]aminoceph-3-em-4-carboxylic acid] as the compound, how does the “dose relative to minimum effective dose which protected 50% of the mice against bacterial infection (PD50)” value (bacterial infection; dose 100 mg./kg.) read?
The value was “at least ten times”.

For `CC(=O)OCC1=C(C(=O)O)N2C(=O)[C@@H](Nc3ncc[nH]3)[C@H]2SC1` [3-acetoxymethyl-7-imidazol-2-yl)aminoceph-3-em-4-carboxylic acid], which “dose relative to minimum effective dose which protected 50% of the mice against bacterial infection (PD50)” value (bacterial infection; dose 100 mg./kg.) is on record?
Its value is “at least ten times”.

Which “dose relative to minimum effective dose which protected 50% of the mice against bacterial infection (PD50)” value (bacterial infection; dose 100 mg./kg.) does the source give for `Cn1nnnc1SCC1=C(C(=O)O)N2C(=O)[C@@H](Nc3ncc[nH]3)[C@H]2SC1` [7-(imidazol-2-yl)amino-3-(1H-1-methyltetrazol-5-yl)thiomethylceph-3-em-4-carboxylic acid] here?
Its value is “at least ten times”.

For `Cc1nnc(SCC2=C(C(=O)O)N3C(=O)[C@@H](Nc4ncc[nH]4)[C@H]3SC2)s1` [7-(imidazol-2-yl)amino-3-(2-methyl-1,3,4-thiadiazol-5-yl)thiomethylceph-3-em-4-carboxylic acid], which “overt toxic symptoms or side effects” value ([1]; oral) is on record?
The value was “no overt toxic symptoms or side effects were noted”.

And the “overt toxic symptoms or side effects” value ([1]; subcutaneous)?
The value was “no overt toxic symptoms or side effects were noted”.

What does the source list for `CC(=O)OCC1=C(C(=O)O)N2C(=O)[C@@H](Nc3ncc[nH]3)[C@H]2SC1` [drawing 38]?
MIC (Strep. pyogenes): 16 µg/mL (≈ 47.3 µM); MIC (Staph. aureus): 32 µg/mL (≈ 94.6 µM); MIC (E. coli): 0.12 µg/mL (≈ 0.355 µM); MIC (K. aerogenes): 0.5 µg/mL (≈ 1.48 µM); MIC (Ent. cloacae): 4 µg/mL (≈ 11.8 µM); MIC (Serratia marescens): 1 µg/mL (≈ 2.96 µM); MIC (Proteus mirabilis): 32 µg/mL (≈ 94.6 µM); MIC (Ps. aeruginosa): > 256 µg/mL
